The results in this text go back to patent US20180282323A1, “Mesoionic imidazole derivatives as insecticides” (BAYER CROPSCIENCE AKTIENGESELLSCHAFT, priority 2015, published 2018).

In one data set the test system is Myzus persicae. In words: Myzus persicae oral test. Type of data set: in vivo. To be noted: application rate 20 ppm, oral uptake through parafilm, after 5 days; for pest or weed control at 20 ppm: Myzus persicae, 120 h, read-out: efficacy. Here is the method:
Myzus persicae—Oral Test Solvent: 100 parts by weight of acetone
To produce an appropriate active ingredient formulation, 1 part by weight of active ingredient is dissolved with the stated parts by weight of solvent and made up with water until the desired concentration is attained.
50 μl of the active ingredient formulation are transferred into microtitre plates and made up to a final volume of 200 μl with 150 μl of IPL41 insect medium (33%+15% sugar). Subsequently, the plates are sealed with parafilm, which a mixed population of green peach aphids (Myzus persicae) within a second microtitre plate is able to puncture and imbibe the solution through it.
After 5 days, the efficacy in % is determined. 100% means that all the aphids have been killed; 0% means that no aphids have been killed.

Data set [1] in a line: log P by HPLC on reversed-phase column (EEC directive 79/831 Annex V.A8). To be noted: for log p a): HPLC on reversed-phase column. Format: physicochemical. The protocol: a) The determination of the [M+H]^+ by LC-MS in the acidic range was effected at pH 2.7, with acetonitrile (containing 0.1% formic acid) and water as eluents; linear gradient from 10% acetonitrile to 95% acetonitrile, instrument: Agilent 1100 LC system, Agilent MSD system, HTS PAL.
The log P values reported in the tables and preparation examples above were determined in accordance with EEC directive 79/831 Annex V.A8 by HPLC (High Performance Liquid Chromatography) using a reversed-phase column (C18). Temperature 43° C.

Setting [2] is: HPLC on reversed-phase column (footnote a).

Like-named read-outs stand apart in the source and are kept apart here.

Turning to `Cc1ccc[n+]2c(C(=O)NC3CC3)c([O-])n(C(C)c3ccc(Cl)nc3)c12` (racemic) [Example I-1-257], the efficacy with Myzus persicae was 100%. For the same molecule, in data set [1], the “log p a)” value turned out to be 1.52.

`CC(C)[S+]([O-])CC(=O)c1c([O-])n(Cc2cnc(Cl)s2)c2cccc[n+]12` (stereo not drawn) [Example I-1-038]: the efficacy in the data set with Myzus persicae amounted to 100%. This molecule came in with a log p in data set [1] (setting [2]) of 1.32.

Regarding `Cc1ccc[n+]2c(C(=O)Nc3ccc(F)cc3)c([O-])n(Cc3ccc(Cl)nc3)c12` [Example I-1-219], in the data set on Myzus persicae, the efficacy worked out at 100%. Moreover, the “log p a)” value in data set [1] is reported as 2.9.

`COCC(=O)c1c([O-])n(Cc2cnc(OC)s2)c2cc(Cl)cc[n+]12` [Example I-1-124] returned an efficacy with Myzus persicae of 100%. Besides, in data set [1] (setting [2]), the log p turned out to be 1.51.

In the data set with Myzus persicae, `O=C(CSc1ccccc1)c1c([O-])n(Cc2cnc(Cl)s2)c2cccc[n+]12` [Example I-1-025] returned an efficacy of 100%. Also, in data set [1] (setting [2]), the log p stood at 2.67.

`Cc1ccc[n+]2c(C(=O)Nc3c(F)cccc3F)c([O-])n(Cc3cnc(Cl)s3)c12` [Example I-1-212]: the efficacy in the data set on Myzus persicae is reported as 100%. In data set [1], the “log p a)” value came to 2.73.

With `O=C(CCl)c1c([O-])n(Cc2cnc(Cl)s2)c2scc[n+]12` [Example I-5-002], the efficacy in the data set on Myzus persicae is given as 100%. The “log p^a)” value in data set [1] (Table 3; HPLC reversed-phase C18, 43° C.; footnote a) acidic range pH 2.7) is recorded as 1.46.

`N#Cc1ccn(CC(=O)c2c([O-])n(Cc3cnc(Cl)s3)c3cccc[n+]23)n1` [Example I-1-047] had an efficacy in the data set on Myzus persicae of 100%. This molecule had a log p in data set [1] (setting [2]) of 1.83.

`O=C(COc1cccnc1)c1c([O-])n(Cc2ccc(Cl)nc2)c2cccc[n+]12` [Example I-1-006] displayed an efficacy with Myzus persicae of 100%. This molecule also showed a log p in data set [1] (setting [2]) of 0.93.

Turning to `CCCOCC(=O)c1c([O-])n(Cc2cnc(Cl)s2)c2ccc(Cl)c[n+]12` [Example I-1-117], the efficacy in the data set with Myzus persicae came out at 100%. The molecule also returned a log p in data set [1] (setting [2]) of 2.41.

Molecule `CSc1ccn(CC(=O)c2c([O-])n(Cc3cnc(Cl)s3)c3cccc[n+]23)n1` [Example I-1-052] registered an efficacy in the data set on Myzus persicae of 100%. In data set [1] (setting [2]), this molecule gave a log p of 1.94.

Take `C[S+]([O-])CC(=O)c1c([O-])n(Cc2cnc(Cl)s2)c2cccc[n+]12` (stereo not drawn) [Example I-1-039]: in the data set with Myzus persicae, the efficacy turned out to be 100%. The log p in data set [1] (setting [2]) is 1.08.

With `O=C(CCl)c1c([O-])n(Cc2ccc(F)nc2)c2cccc[n+]12` [Example I-1-207], the efficacy in the data set with Myzus persicae is 100%. For the same molecule, in data set [1], the “log p a)” value was 1.38.

`Cc1ccc[n+]2c(C(=O)NC(C)(C)C)c([O-])n(Cc3cnc(Cl)s3)c12` [Example I-1-213]: in the data set with Myzus persicae, the efficacy is 100%. Further, the “log p a)” value in data set [1] is 2.69.

For the molecule `O=C(CCl)c1c([O-])n(Cc2cnc(Cl)s2)c2ccc(Cl)c[n+]12` [Example I-1-108], the efficacy in the data set with Myzus persicae amounted to 100%. Also, the log p in data set [1] (setting [2]) came to 2.2.

In the data set with Myzus persicae, `CC(c1ccc(Cl)nc1)n1c([O-])c(C(=O)Nc2c(F)cccc2F)[n+]2ccccc12` (stereo not drawn) [Example I-1-272] gave an efficacy of 100%. Also, the “log p a)” value in data set [1] is given as 2.46.

In turn, `Cc1cccc2n(Cc3ccc(Cl)nc3)c([O-])c(C(=O)Cn3cccn3)[n+]12` [Example I-1-103] registered an efficacy in the data set on Myzus persicae of 100%. For the same molecule, in data set [1] (setting [2]), the log p came to 1.47.

`CC(NC(=O)c1c([O-])n(Cc2cnc(Cl)s2)c2cccc[n+]12)c1ccc(Cl)cc1` (stereo not drawn) [Example I-1-142] came in with an efficacy with Myzus persicae of 100%. Also, the log p in data set [1] (setting [2]) turned out to be 3.13.

As to `COC(=O)c1c([O-])n(Cc2ccc(Cl)nc2)c2ccc(F)c[n+]12` [Example I-1-155], the efficacy in the data set on Myzus persicae is listed as 100%. This molecule returned a log p in data set [1] (setting [2]) of 1.43.

As for `O=C(Cn1cnc(C(F)(F)F)c1)c1c([O-])n(Cc2cnc(Cl)s2)c2cccc[n+]12` [Example I-1-051], the efficacy in the data set on Myzus persicae came to 100%. In addition, the log p in data set [1] (setting [2]) amounted to 2.

`Cc1ccc2n(Cc3cnc(Cl)s3)c([O-])c(C(=O)CCl)[n+]2c1` [Example I-1-125]: the efficacy in the data set on Myzus persicae is on record as 90%. This molecule also gave a log p in data set [1] (setting [2]) of 1.99.

For the molecule `CCOCC(=O)c1c([O-])n(Cc2cnc(Cl)c(Cl)c2)c2cccc[n+]12` [Example I-1-192], the efficacy in the data set on Myzus persicae is given as 100%. For the same molecule, in data set [1] (setting [2]), the log p was found to be 1.93.

Take `O=C(CCl)c1c([O-])n(Cc2ccc(Cl)nc2)c2scc[n+]12` [Example I-5-001, 5-(Chloroacetyl)-7-[(6-chloropyridin-3-yl)methyl]-7H-imidazo[2,1-b][1,3]thiazol-4-ium-6-olate]: the pest or weed control at 20 ppm in the data set on Myzus persicae was 100%. Further, the chromatographic logP in data set [1] and in data set [1] (pH 2.7) was 1.33 in each case.

On to `O=C(CCl)c1c([O-])n(Cc2cnc(Cl)c(Cl)c2)c2cccc[n+]12` [Example I-1-168], for which the efficacy in the data set on Myzus persicae is 100%. For the same molecule, the log p in data set [1] (setting [2]) was determined as 2.11.

Turning to `COc1ccc(NC(=O)c2c([O-])n(C(C)c3ccc(Cl)nc3)c3cccc[n+]23)cc1` (stereo not drawn) [Example I-1-237], the efficacy in the data set with Myzus persicae is reported as 90%. The “log p a)” value in data set [1] stood at 2.66.

`Cc1ccc[n+]2c(C(=O)NCC(C)C)c([O-])n(Cc3ccc(Cl)nc3)c12` [Example I-1-191]: the efficacy with Myzus persicae worked out at 90%. Further, the log p in data set [1] (setting [2]) amounted to 2.33.

Consider `CC(C)(C)NC(=O)c1c([O-])n(Cc2cnc(Cl)s2)c2cccc[n+]12` [Example I-1-151], for which, in the data set with Myzus persicae, the efficacy is 100%. In data set [1] (setting [2]), the log p turned out to be 2.39.

For the molecule `O=C(Nc1ccccc1Cl)c1c([O-])n(Cc2cnc(Cl)s2)c2cccc[n+]12` [Example I-1-234], in the data set with Myzus persicae, the efficacy came out at 100%. Besides, the “log p a)” value in data set [1] turned out to be 3.29.

`CC(C)NC(=O)c1c([O-])n(Cc2cnc(Cl)s2)c2cccc[n+]12` [Example I-1-131] came in with an efficacy in the data set on Myzus persicae of 100%. The molecule further yielded a log p in data set [1] (setting [2]) of 1.95.

In turn, `Cc1cccc2n(Cc3ccc(Cl)nc3)c([O-])c(C(=O)CCl)[n+]12` [Example I-1-098] came in with an efficacy in the data set with Myzus persicae of 100%. The same molecule returned a log p in data set [1] (setting [2]) of 1.74.

With `CCN(CC(=O)c1c([O-])n(Cc2cnc(Cl)s2)c2cccc[n+]12)C(C)=O` [Example I-1-040, 3-(N-Acetyl-N-ethylglycyl)-1-[(2-chloro-1,3-thiazol-5-yl)methyl]-1H-imidazo[1,2-a]pyridin-4-ium-2-olate], the pest or weed control at 20 ppm in the data set on Myzus persicae was 100%. Further, the chromatographic logP in data set [1] (reversed-phase C18 HPLC column, pH 2.7, HPLC on reversed-phase column (footnote a), read-out: log p) turned out to be 1.49; in data set [1] (reversed-phase C18 HPLC column, HPLC-MS, reversed-phase C18, 43° C., calibration with alkan-2-ones, read-out: log P) it was 1.49.

Regarding `COC(=O)COCC(=O)c1c([O-])n(Cc2cnc(Cl)s2)c2cccc[n+]12` [Example I-1-075], the efficacy in the data set with Myzus persicae came to 100%. Besides, the log p in data set [1] (setting [2]) came out at 1.41.

In the data set with Myzus persicae, `COc1ccc(NC(=O)c2c([O-])n(Cc3cnc(Cl)s3)c3cccc[n+]23)cc1` [Example I-1-236] showed an efficacy of 100%. The “log p a)” value in data set [1] turned out to be 2.62.

The molecule `O=C(Cn1ccc(Cl)n1)c1c([O-])n(Cc2cnc(Cl)s2)c2cccc[n+]12` [Example I-1-011] came in with an efficacy with Myzus persicae of 100%. The same molecule registered a log p in data set [1] (setting [2]) of 2.03.

`COCC(=O)c1c([O-])n(Cc2ccc(Cl)nc2)c2c(Cl)ccc[n+]12` [Example I-1-164] registered an efficacy with Myzus persicae of 90%. Further, the log p in data set [1] (setting [2]) was 1.59.
